# Results published in patent US9771369B2, “Compounds and methods for kinase modulation, and indications therefor” (Plexxikon Inc., priority 2014, dated 2017).
# Target: c-kit mutant D816V (Homo sapiens (Human), UniProt P10721, D816V/DEL694-753)
# Experiment: c-Kit mutant D816V biochemical assay (AlphaScreen kinase activity)
# Method in brief: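 Recombinant His-tagged c-Kit D816V kinase domain (residues 551-934, insert 694-753 deleted, E. coli-expressed) phosphorylating 30 nM biotin-(E4Y)10 with 10 μM ATP, HEPES pH 7.2, Mg/Mn, 5% DMSO; 30 min, room temperature. Phosphorylation detected by AlphaScreen (streptavidin donor/PY30 acceptor beads); IC50 from 8-point 1:3 series.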
# Sequence of c-kit mutant D816V (P10721 other isoform, or with tags, fused parts or gaps D816V/del 694-753): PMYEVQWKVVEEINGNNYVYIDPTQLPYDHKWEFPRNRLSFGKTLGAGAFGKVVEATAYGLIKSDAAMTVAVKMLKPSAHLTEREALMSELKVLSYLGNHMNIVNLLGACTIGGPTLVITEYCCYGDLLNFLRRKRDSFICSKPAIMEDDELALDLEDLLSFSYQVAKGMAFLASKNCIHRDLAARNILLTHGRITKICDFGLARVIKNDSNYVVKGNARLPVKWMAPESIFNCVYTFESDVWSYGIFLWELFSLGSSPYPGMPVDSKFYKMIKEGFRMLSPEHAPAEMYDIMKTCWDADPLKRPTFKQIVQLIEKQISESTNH
row,Compound,IC50 [µM]
1,"COc1cc(-c2cc3c(N4CCC(c5nc(C)c(-c6cccc(OC(F)(F)F)c6)[nH]5)CC4)ncnc3[nH]2)ccn1 [P-3014, 6-(2-methoxy-4-pyridyl)-4-[4-[4-methyl-5-[3-(trifluoromethoxy)phenyl]-1H-imidazol-2-yl]-1-piperidyl]-7H-pyrrolo[2,3-d]pyrimidine]",0.0001 to 1
2,"COc1ccc(-c2[nH]c(C3CCN(c4ncnc5[nH]c(-c6ccc(C#N)cc6)cc45)CC3)nc2C)cc1 [P-3015, 4-[4-[4-[5-(4-methoxyphenyl)-4-methyl-1H-imidazol-2-yl]-1-piperidyl]-7H-pyrrolo[2,3-d]pyrimidin-6-yl]benzonitrile]",0.0001 to 1
3,"Cc1nc(C2CCN(c3ncnc4[nH]c(-c5ccc(C#N)cc5)cc34)CC2)[nH]c1-c1cccc(F)c1 [P-3016, 4-[4-[4-[5-(3-fluorophenyl)-4-methyl-1H-imidazol-2-yl]-1-piperidyl]-7H-pyrrolo[2,3-d]pyrimidin-6-yl]benzonitrile]",0.0001 to 1
4,"COc1ccc(-c2[nH]c(C3CCN(c4ncnc5[nH]c(-c6ccnc(OC)c6)cc45)CC3)nc2C)cc1 [P-3017, 4-[4-[5-(4-methoxyphenyl)-4-methyl-1H-imidazol-2-yl]-1-piperidyl]-6-(2-methoxy-4-pyridyl)-7H-pyrrolo[2,3-d]pyrimidine]",0.0001 to 1
5,"COc1ccc(-c2[nH]c(C3CCN(c4ncnc5[nH]c(-c6ccc(C#N)cc6)cc45)CC3)nc2C)cc1F [P-3018, 4-[4-[4-[5-(3-fluoro-4-methoxy-phenyl)-4-methyl-1H-imidazol-2-yl]-1-piperidyl]-7H-pyrrolo[2,3-d]pyrimidin-6-yl]benzonitrile]",0.0001 to 1
6,"CCOc1ccc(-c2[nH]c(C3(C)CCN(c4ncnc5[nH]c(-c6ccc(OC)nc6)cc45)CC3)nc2C)cc1 [P-3171, 4-[4-[5-(4-ethoxyphenyl)-4-methyl-1H-imidazol-2-yl]-4-methyl-1-piperidyl]-6-(6-methoxy-3-pyridyl)-7H-pyrrolo[2,3-d]pyrimidine]",0.0001 to 1
7,"COc1ccc(-c2[nH]c(C3(C)CCN(c4ncnc5[nH]c(-c6ccc(C#N)cc6)cc45)CC3)nc2C)cn1 [P-3172, 4-[4-[4-[5-(6-methoxy-3-pyridyl)-4-methyl-1H-imidazol-2-yl]-4-methyl-1-piperidyl]-7H-pyrrolo[2,3-d]pyrimidin-6-yl]benzonitrile]",0.0001 to 1
8,"COc1ncc(-c2[nH]c(C3CCN(c4ncnc5[nH]c(-c6ccc(C#N)cc6)cc45)CC3)nc2C)cc1F [P-3173, 4-[4-[4-[5-(5-fluoro-6-methoxy-3-pyridyl)-4-methyl-1H-imidazol-2-yl]-1-piperidyl]-7H-pyrrolo[2,3-d]pyrimidin-6-yl]benzonitrile]",0.0001 to 1
9,"Cc1nc(C2(C)CCN(c3ncnc4[nH]c(-c5cnn(C(F)F)c5)cc34)CC2)[nH]c1-c1ccc(Cl)cc1 [P-3175, 4-[4-[5-(4-chlorophenyl)-4-methyl-1H-imidazol-2-yl]-4-methyl-1-piperidyl]-6-[1-(difluoromethyl)pyrazol-4-yl]-7H-pyrrolo[2,3-d]pyrimidine]",0.0001 to 1
10,"COc1ccc(-c2cc3c(N4CCC(C)(c5nc(C)c(-c6ccc(Cl)cc6)[nH]5)CC4)ncnc3[nH]2)cn1 [P-3176, 4-[4-[5-(4-chlorophenyl)-4-methyl-1H-imidazol-2-yl]-4-methyl-1-piperidyl]-6-(6-methoxy-3-pyridyl)-7H-pyrrolo[2,3-d]pyrimidine]",0.0001 to 1
11,"Cc1nc(C2(C)CCN(c3ncnc4[nH]c(-c5ccc(C#N)cc5)cc34)CC2)[nH]c1-c1ccc(C(F)(F)F)cc1 [P-3177, 4-[4-[4-methyl-4-[4-methyl-5-[4-(trifluoromethyl)phenyl]-1H-imidazol-2-yl]-1-piperidyl]-7H-pyrrolo[2,3-d]pyrimidin-6-yl]benzonitrile]",0.0001 to 1
12,"COc1ccc(-c2cc3c(N4CCC(C)(c5nc(C)c(-c6ccc(C(F)(F)F)cc6)[nH]5)CC4)ncnc3[nH]2)cn1 [P-3178, 6-(6-methoxy-3-pyridyl)-4-[4-methyl-4-[4-methyl-5-[4-(trifluoromethyl)phenyl]-1H-imidazol-2-yl]-1-piperidyl]-7H-pyrrolo[2,3-d]pyrimidine]",0.0001 to 1
13,"Cc1nc(C2(C)CCN(c3ncnc4[nH]c(-c5cnn(C(F)F)c5)cc34)CC2)[nH]c1-c1ccc(C(F)(F)F)cc1 [P-3179, 6-[1-(difluoromethyl)pyrazol-4-yl]-4-[4-methyl-4-[4-methyl-5-[4-(trifluoromethyl)phenyl]-1H-imidazol-2-yl]-1-piperidyl]-7H-pyrrolo[2,3-d]pyrimidine]",0.0001 to 1
14,"Cc1nc(C2(C)CCN(c3ncnc4[nH]c(-c5ccc(C#N)cc5)cc34)CC2)[nH]c1-c1ccc(Cl)cc1 [P-3180, 4-[4-[4-[5-(4-chlorophenyl)-4-methyl-1H-imidazol-2-yl]-4-methyl-1-piperidyl]-7H-pyrrolo[2,3-d]pyrimidin-6-yl]benzonitrile]",0.0001 to 1
15,"COc1ncc(-c2[nH]c(C3(C)CCN(c4ncnc5[nH]c(-c6ccc(C#N)cc6)cc45)CC3)nc2C)cc1F [P-3181, 4-[4-[4-[5-(5-fluoro-6-methoxy-3-pyridyl)-4-methyl-1H-imidazol-2-yl]-4-methyl-1-piperidyl]-7H-pyrrolo[2,3-d]pyrimidin-6-yl]benzonitrile]",0.0001 to 1
16,"COc1ccc(-c2[nH]c(C3(C)CCN(c4ncnc5[nH]c(-c6cnn(C(F)F)c6)cc45)CC3)nc2C)cn1 [P-3182, 6-[1-(difluoromethyl)pyrazol-4-yl]-4-[4-[5-(6-methoxy-3-pyridyl)-4-methyl-1H-imidazol-2-yl]-4-methyl-1-piperidyl]-7H-pyrrolo[2,3-d]pyrimidine]",0.0001 to 1
17,"COc1ccc(-c2[nH]c(C3(C)CCN(c4ncnc5[nH]c(C)cc45)CC3)nc2C)cc1F [P-3183, 4-[4-[5-(3-fluoro-4-methoxy-phenyl)-4-methyl-1H-imidazol-2-yl]-4-methyl-1-piperidyl]-6-methyl-7H-pyrrolo[2,3-d]pyrimidine]",0.0001 to 1
18,"Cc1cc2c(N3CCC(C)(c4nc(C)c(-c5ccc(C(F)F)cc5)[nH]4)CC3)ncnc2[nH]1 [P-3184, 4-[4-[5-[4-(difluoromethyl)phenyl]-4-methyl-1H-imidazol-2-yl]-4-methyl-1-piperidyl]-6-methyl-7H-pyrrolo[2,3-d]pyrimidine]",0.0001 to 1
19,"COc1ncc(-c2nc(C3(C)CCN(c4ncnc5[nH]c(C)cc45)CC3)[nH]c2C)cc1F [P-3185, 4-[4-[4-(5-fluoro-6-methoxy-3-pyridyl)-5-methyl-1H-imidazol-2-yl]-4-methyl-1-piperidyl]-6-methyl-7H-pyrrolo[2,3-d]pyrimidine]",0.0001 to 1
20,"COc1ccc(-c2nc(C3(C)CCN(c4ncnc5[nH]c(C)cc45)CC3)[nH]c2C)cn1 [P-3186, 4-[4-[4-(6-methoxy-3-pyridyl)-5-methyl-1H-imidazol-2-yl]-4-methyl-1-piperidyl]-6-methyl-7H-pyrrolo[2,3-d]pyrimidine]",0.0001 to 1
21,"COc1ccc(-c2[nH]c(C3(C)CCN(c4ncnc5[nH]c(-c6cnn(C(F)F)c6)cc45)CC3)nc2C)cc1F [P-3187, 6-[1-(difluoromethyl)pyrazol-4-yl]-4-[4-[5-(3-fluoro-4-methoxy-phenyl)-4-methyl-1H-imidazol-2-yl]-4-methyl-1-piperidyl]-7H-pyrrolo[2,3-d]pyrimidine]",0.0001 to 1
22,"COc1ccc(-c2cc3c(N4CCC(C)(c5nc(C)c(-c6ccc(OC)c(F)c6)[nH]5)CC4)ncnc3[nH]2)cn1 [P-3188, 4-[4-[5-(3-fluoro-4-methoxy-phenyl)-4-methyl-1H-imidazol-2-yl]-4-methyl-1-piperidyl]-6-(6-methoxy-3-pyridyl)-7H-pyrrolo[2,3-d]pyrimidine]",0.0001 to 1
23,"Cc1nc(C2(C)CCN(c3ncnc4[nH]c(-c5cnn(C(F)F)c5)cc34)CC2)[nH]c1-c1ccc(C(F)F)cc1 [P-3189, 4-[4-[5-[4-(difluoromethyl)phenyl]-4-methyl-1H-imidazol-2-yl]-4-methyl-1-piperidyl]-6-[1-(difluoromethyl)pyrazol-4-yl]-7H-pyrrolo[2,3-d]pyrimidine]",0.0001 to 1
24,"COc1ccc(-c2cc3c(N4CCC(C)(c5nc(C)c(-c6ccc(C(F)F)cc6)[nH]5)CC4)ncnc3[nH]2)cn1 [P-3190, 4-[4-[5-[4-(difluoromethyl)phenyl]-4-methyl-1H-imidazol-2-yl]-4-methyl-1-piperidyl]-6-(6-methoxy-3-pyridyl)-7H-pyrrolo[2,3-d]pyrimidine]",0.0001 to 1
25,"Cc1cc2c(N3CCC(C)(c4nc(C)c(-c5cccc(OC(F)F)c5)[nH]4)CC3)ncnc2[nH]1 [P-3191, 4-[4-[5-[3-(difluoromethoxy)phenyl]-4-methyl-1H-imidazol-2-yl]-4-methyl-1-piperidyl]-6-methyl-7H-pyrrolo[2,3-d]pyrimidine]",0.0001 to 1
26,"Cc1nc(C2(C)CCN(c3ncnc4[nH]c(-c5cnn(C(F)F)c5)cc34)CC2)[nH]c1-c1cccc(OC(F)F)c1 [P-3192, 4-[4-[5-[3-(difluoromethoxy)phenyl]-4-methyl-1H-imidazol-2-yl]-4-methyl-1-piperidyl]-6-[1-(difluoromethyl)pyrazol-4-yl]-7H-pyrrolo[2,3-d]pyrimidine]",0.0001 to 1
27,"COc1ccc(-c2cc3c(N4CCC(C)(c5nc(C)c(-c6cccc(OC(F)F)c6)[nH]5)CC4)ncnc3[nH]2)cn1 [P-3193, 4-[4-[5-[3-(difluoromethoxy)phenyl]-4-methyl-1H-imidazol-2-yl]-4-methyl-1-piperidyl]-6-(6-methoxy-3-pyridyl)-7H-pyrrolo[2,3-d]pyrimidine]",0.0001 to 1
28,"Cc1nc(C2(C)CCN(c3ncnc4[nH]c(-c5ccc(C#N)cc5)cc34)CC2)[nH]c1-c1cccc(OC(F)F)c1 [P-3194, 4-[4-[4-[5-[3-(difluoromethoxy)phenyl]-4-methyl-1H-imidazol-2-yl]-4-methyl-1-piperidyl]-7H-pyrrolo[2,3-d]pyrimidin-6-yl]benzonitrile]",0.0001 to 1
29,"Cc1nc(C2(C)CCN(c3ncnc4[nH]c(-c5ccc(C#N)cc5)cc34)CC2)[nH]c1-c1ccc(OC(F)F)cc1 [P-3195, 4-[4-[4-[5-[4-(difluoromethoxy)phenyl]-4-methyl-1H-imidazol-2-yl]-4-methyl-1-piperidyl]-7H-pyrrolo[2,3-d]pyrimidin-6-yl]benzonitrile]",0.0001 to 1
